Experimental data taken from patent US11179436B2, “Methods and compositions comprising a C-terminal Bax peptide” (University of Central Florida Research Foundation, Inc., priority 2011, dated 2021).

Tests used:
[1] = test system: MDA-MB-231 cells; experiment: Cell death by CT20 peptide/nanoparticles and/or CDDP, with Z-VAD-fmk or Bcl-2 overexpression; assay type: cell-based; details: FIG. 6A; for effect of caspase inhibition with Z-VAD-FMK on cell death: 100 μM Z-VAD-fmk pre-treatment; for cell death / loss of membrane integrity: CT20 peptide/nanoparticles 350 pM; for effect of Bcl-2 overexpression on cell death: transient Bcl-2 transfection
Method: MDA-MB-231 cells were transiently transfected with pcDNA-Bcl2 (or as control pEGFP (Clontech)) using the TransIT-LT1 transfection reagent (Minis). To assess transfection efficiency, cells were assayed microscopically for EGFP expression. To assess Bcl-2 expression, cells lysates were immunoblotted.
Visualization of the uptake and effects of the fluorescent dye (DiI)-loaded nanoparticles in HCT-116, MCF-7, and MDA-MD-231 cells was observed using a 10× air objective with a numerical aperture of 0.3, using ex/em of 514/587. All cells were loaded with MitoTracker. Visualization of the HCT-116 cell lines was observed using Plan-Apochromat 63× Oil objective. MCF-7 and MDA-MB-231 images were captured using Plan-Apochromat 40× Oil objective. All time-lapse images were generated in 2D by capturing 6 time points per hour for 24 hours of the same field.
(§1) HCT-116, MCF-7, or MDA-MB-231 cells were collected at a final concentration of 1×10^6 cells/mL and assayed using the SYTOX® AADvanced™ dead cell stain solution (Invitrogen). Cells were analyzed using the BD FACSCanto flow cytometer. SYTOX® AADvanced™ was visualized at 488 nm and emissions collected at 695 nm. Analysis of data was done using FSC Express software (DeNovo). Membrane asymmetry was assessed using the Violet Ratiometric Membrane Asymmetry Probe/Dead Cell Apoptosis Kit (Invitrogen) according to the manufacturer's protocol.
(§2) To evaluate apoptosis, cells were pre-treated with 100 μM of the pan-caspase inhibitor Z-VAD-fmk (EMD Biosciences) or transiently transfected with Bcl-2, then treated with either CT20/nanoparticles or cisplatin (CDDP) alone or in combination as indicated in figure legends. Following treatment, cells were analyzed for cell death and membrane asymmetry.
Whether the CT20 peptide was able to kill the breast cancer cells, MCF-7 and MDA-MB-231, was examined. […] For each sample, three different fields of view were acquired. Images are representative “snapshots” of three independent experiments Most MCF-7 cells died within 24 hours, while loss of membrane integrity was detected by 3 hours of treatment (FIG. 5B). […] Within three hours, increased membrane rupture was detected in MDA-MB-231 cells treated with COOH-nanoparticles loaded with CT20 peptide (FIG. 5D).
To investigate the mechanism by which the CT20p peptide was inducing cell death, MDA-MB-231 cells were treated with CT20 Bax peptide/nanoparticles (350 pM). A caspase inhibitor (e.g., ZVAD-Fmk and/or CDDP) was added or Bcl-2 was overexpressed. […] The expression of Bcl-2 by transfected cells was confirmed by immunoblotting lysates prepared from cells (FIG. 10).

[2] = test system: MDA-MB-231 cells; experiment: Membrane asymmetry with violet ratiometric probe; assay type: cell-based; details: FIG. 6B
Method: as §1, §2
Therefore, to determine whether the CT20p peptide induced apoptotic cell death, the amount of membrane asymmetry caused by flipping of phospholipids phospholipids in the plasma membrane using a violet ratiometric probe was determined. In FIG. 6B, dot blots show the comparison of loss of membrane integrity to changes in membrane symmetry in MDA-MB-231 cells treated with CT20p peptide and/or CDDP. […] This was minimally affected by caspase inhibition or Bcl-2 expression. […]

[3] = Calcein release from calcein-loaded large unilamellar vesicles; assay type: biochemical; details: for maximal release of calcein upon treatment with detergent: Triton X-100 after peptide; for maximal release of calcein upon treatment with detergent / release of calcein from mitochondrial-like lipid vesicles: FIG. 1C; for release of calcein from mitochondrial-like lipid vesicles: free peptide
Method: Calcein release from artificial membranes was measured on a JASCO 810 spectropolarimeter (Jasco Inc.) with a Peltier water cooled thermostat and a photomultiplier tube mounted at 90 degrees for fluorescence measurements. Large unilamellar vesicles (LUVs) were prepared with the following modifications: Lipids (Avanti Polar Lipids) in chloroform were mixed in the following molar ratios: 52.5% 1-palmitoyl-2-oleyl-sn-glycero-3-phosphatidylcholine (POPC), 21% 1-palmitoyl-2-oleyl-sn-glycero-3-phosphatidylethanolamine (POPE), 13% bovine liver L-α phosphatidylinositol (PI), 10% cholesterol and 3.5% 1-palmitoyl-2-oleyl-sn-glycero-3-phosphatidylglycerol (POPG). These rations mimicked the outer mitochondrial membrane. After removing chloroform and desiccating, the dried lipid film was resuspended in 50 mM HEPES, pH 7, supplemented with 110 mM NaCl and 80 mM calcein and extruded with Avanti's mini extruder (Alabaster, Ala.). External calcein was removed by gel filtration through a 1.5×50 cm Econo-Column (Bio-Rad) freshly packed with Sephadex 50 (GE Healthcare). CT20 Bax peptides were added at concentrations equivalent to those used with cells in culture. Calcein fluorescence was excited at 495 nm and emission spectra recorded between 510 and 550 nm (excitation/ emission slits: 10/3 nm). Samples were maintained at 37° C. and a final measurement taken at 24 hours. Maximum calcein release was obtained by the addition of Triton ×100 (0.1% final concentration) to calcein loaded LUVs without nanoparticles that had had been incubated at 37° C. for 24 hours after the addition of 10 μL DMSO.
Using a commercially synthesized peptide composed of the last twenty amino acids ([…]) of the C-terminus of Bax (CT20), the ability of CT20p peptideto insert and permeabilize lipid membranes was examined. Liposomes contained phospholipids that composed the mitochondrial outer membrane and were loaded with calcein. […] In FIG. 1C, the red lines indicate maximal release of calcein with Triton X-100. The blue lines indicate treatment with DMSO and the green lines (except for control) indicate treatment with CT20 Bax peptides.
To determine whether the CT20p peptide could directly kill cancer cells, the CT20 wild type peptide was encapsulated in polymeric nanoparticles. As the CT20p peptide is amphipathic, it can be encapsulated within the hydrophobic pockets of aliphatic polymeric nanoparticles. […] To verify that the nanoparticles would not release the CT20 peptide at neutral pH, calcein loaded liposomes were prepared.
In FIG. 9, a calcein release assay was performed with calcein loaded lipid vesicles prepared with the composition of the mitochondrial membrane. Calcein release was measured as fluorescence. Controls were calcein release achieved with CT20p peptide alone and maximum calcein release obtained upon addition of Triton x100. A representative experiment of two independent experiments is shown. This confirmed that cargo is released from nanoparticles only by intracellular esterases or acidic pH (Santra et al., 2010).

[4] = test system: MDA-MB-231 cells implanted in the flanks of nude mice; experiment: Murine tumor experiment, intratumoral injection, tumor volume by ultrasound; assay type: in vivo; details: for tumor growth / change in tumor volume: intratumoral injections over a 4-5 day period, versus empty nanoparticles or PBS
Method: One to two million MBA-MD-231 cells were harvested from culture and injected subcutaneously into the right and left flanks of 16 female nude mice (nu/nu, Charles River). After 2-3 weeks, tumor volume and growth was assessed by ultrasound (VisualSonics Vevo 2100). Mice with tumors were injected intratumorally with PBS, unloaded polymeric nanoparticles, or CT20 Bax peptide-loaded polymeric nanoparticles at 4× the concentrations described above. Injections were performed twice over a 4-5 day period. Mice were observed 0-5 days post-treatments and tumor volume assessed by ultrasound.
MDA-MB-231 cells were implanted in the flanks of nude mice. Initial growth of tumors was detected after 2 weeks. At this time tumors were measured, and over a 4-5 day period, the mice were treated with intratumoral injections of PBS, unloaded or empty nanoparticles (NP), or CT20 peptide/nanoparticles.
FIG. 6D provides representative ultrasound image of changes in tumor volume induced by treatment on days 0, 2 and 4 with the unloaded or CT20 peptide loaded nanoparticles. These findings indicate reduced uptake or effectiveness in non-cancerous cells.

[5] = test system: wild type E. coli; experiment: E. coli growth in broth by optical density; assay type: cell-based; details: FIG. 14
Method: Attributes are shared among the peptides. […] The E. coli were grown in the presence of a peptide, concentrations of CT20p peptide or for control, SCR peptide, or no peptide for a control, in standard conditions for growing bacteria in broth media.

[6] = test system: wild type E. coli; experiment: E. coli colony formation after treatment; assay type: cell-based; details: FIG. 15
Method: This was determined by plating the E. coli after treatment then counting the resulting colonies after 24 hour incubation. […] The bacterial culture media was plated after 24 hours of treatment/exposure to Ct20p or the control conditions, a peptide (SCR) or no peptide and addition of DMSO, and the resulting colonies were counted. […] A conclusion was that the inhibition of growth seen in FIG. 14 was due to the killing or lysing of bacteria.

[7] = Pore formation in zwitterionic and anionic membranes, kinetics of calcein release and structural studies; assay type: biochemical; details: calcein transport
Source text: An analysis of formation of relatively large membrane pores by Bax C-terminal 20-reside peptide (CT20p) and two mutants where the two native lysines are replaced either with glutamates (charge reversal mutation) or leucines (charge neutralization mutation) were examined. […] The kinetics of calcein release at various concentrations of the three peptides allowed identification of the second-order rate constants of pore formation within the membrane, the affinity constants of peptide units composing the pore, and the oligomeric pore structure. Nucleation of the pore is shown to be relatively slow and involve 2-3 peptide molecules, followed by a faster process of assembly of the pore that includes up to eight peptide molecules. Structural studies led to a model of an octameric transmembrane pore with an inner diameter of 20-22 A. Analysis of the kinetics of calcein release from lipid vesicles allows determination of rate constants of pore formation, peptide-peptide affinities within the membrane, the oligomeric state of transmembrane pores, and the role of the lysine residues. […]
Additionally, the pore structure was analyzed by polarized Fourier transform infrared, circular dichroism, and fluorescence experiments on the peptides reconstituted in phospholipid membranes. […]

Row | Compound | effect of caspase inhibition with Z-VAD-FMK on cell death [1] | cell death / loss of membrane integrity [1] | effect of Bcl-2 overexpression on cell death [1] | changes in membrane symmetry [2] | maximal release of calcein upon treatment with detergent [3] | release of calcein from mitochondrial-like lipid vesicles [3] | release of calcein from liposomes ([3]; 350 pM, pH 7, FIG. 9) | tumor growth / change in tumor volume [4] | tumor growth / change in tumor volume ([4]; listed as CT20 peptide) | damage of normal tissue surrounding the tumors ([4]; ultrasound, FIG. 6D) | time at which the growth curve reached a plateau [5] | nature of effect from colony counts ([6]; 24 hours of treatment) | minimum inhibitory concentration (MiC) ([6]; plated after treatment, colonies counted after 24 hour incubation) | pore formation in lipid membranes [7] | pore formation in lipid membranes ([7]; listed as wild-type peptide)
1 | [NH2][Pt]([NH2])([Cl])[Cl] [CDDP, cisplatin, reference compound] | inhibited by ZVAD-FMK | induced cell death | impaired death | induced significant alterations in the membrane symmetry |  |  |  |  |  |  |  |  |  |  | 
2 | VTIFVAGVLTASLTIWEEMG [CT20-EE] |  |  |  |  | did not occur | did not cause calcein release |  |  |  |  |  |  |  |  | 
3 | VTIFVAGVLTASLTIWKKMG [CT20p peptide] | largely unaffected | caused significant loss of membrane integrity | did not impair the death activity |  | impaired the maximal release of calcein | caused the release of calcein | did induce the release of calcein | tumor regression | prevented tumor growth | little to no observable damage of normal tissue | 13 h | bactericidal | 25 mg | efficient at forming pores | most efficient pores
4 | VTIFVAGVLTASLTIWLLMG [CT20-LL] |  |  |  |  | impaired the maximal release of calcein | did not cause calcein release |  |  |  |  |  |  |  |  | 
